{
  "source": "paper PMC6338774",
  "about": "(Scientific Reports, 2019)",
  "key": {"[1]": {"test_system": "human promyelocytic leukemia HL-60 cells", "experiment": "WST-1 cell proliferation assay, HL-60 cells", "type": "cell-based", "conditions": "WST-1, 72 h; for IC50: concentrations 50-200 µM, mean ± SD, na = not active in range tested", "description": "(§1) Human promyelocytic leukemia HL-60 cells and human colon cancer cell line Caco-2 were obtained from the American Type Culture Collection (Manassas, VA, USA). […] (Institute of Biotechnology, Faculty of Environment and Natural Sciences, Brandenburg University of Technology Cottbus-Senftenberg, Senftenberg, Germany)[34] were cultured in DMEM medium supplemented with 10% fetal bovine serum (FBS, Invitrogen, Carlsbad, USA), 2 mM glutamine and antibiotics (complete DMEM). Cells (4 × 10^3/well) were grown for 24 h in 96-well plates (Sarstedt, Germany) in appropriate complete medium at 37 °C and atmosphere containing 5% CO2. […] After indicated periods of time, WST-1 mixture was added to each well, and the cells were cultured for additional 6 h. The absorbance at 450 nm was measured on an EnSpire 2300 Multilabel Reader (Perkin-Elmer, USA), and data were analyzed using the program EnSpire 9.0 (Perkin-Elmer, USA). The experiments were performed in triplicates and repeated at least three times independently."}, "[2]": {"test_system": "human colon carcinoma Caco-2 cells", "experiment": "WST-1 cell proliferation assay, Caco-2 cells", "type": "cell-based", "conditions": "WST-1, 72 h; for IC50: concentrations 50-200 µM, mean ± SD, na = not active in range tested", "description": "as §1"}, "[3]": {"test_system": "porcine epithelial intestinal IPEC-J2 cells", "experiment": "WST-1 cell proliferation assay, IPEC-J2 cells", "type": "cell-based", "conditions": "Sus scrofa, WST-1, 72 h, concentrations 50-200 µM, mean ± SD, na = not active in range tested", "description": "as §1, with “independently. Results were presented as mean IC50 (concentration of the tested compound, that inhibits cell proliferation by 50%) ± standard deviation.” for “independently.”"}, "Solubility in DMSO": {"experiment": "Solubility in DMSO", "type": "physicochemical", "conditions": "the reason cytotoxicity was not tested"}},
  "data": [
    {"compound": "CC(C)Cc1ccc([C@H](C)C(=O)OC[C@@H](O)COP(=O)([O-])OCC[N+](C)(C)C)cc1", "note": "[Compound 7, 1-[2′S-(4″-Isobutylphenyl)]propanoyl-2-hydroxy-sn-glycero-3-phosphocholine]", "values": [
      {"measurement": "concentration up to which non-toxic, HL-60 cells", "setting": "[1]", "value": 200, "unit": "µM"},
      {"measurement": "IC50", "setting": "[2]", "value": "122 ± 2.76", "unit": "µM"}
    ]},
    {"compound": "COc1ccc2cc(C(C)C(=O)OC[C@H](COP(=O)([O-])OCC[N+](C)(C)C)OC(=O)C(C)c3ccc4cc(OC)ccc4c3)ccc2c1", "note": "(mixture of isomers) [Compound 16, 1,2-Di-[2′-(6″-methoxynaphthalenyl)]propanoyl-sn-glycero-3-phosphocholine]", "values": [
      {"measurement": "IC50", "setting": "[1]; Homo sapiens, HL-60", "value": "80.1 ± 10.9", "unit": "µM"},
      {"measurement": "IC50", "setting": "[2]; Homo sapiens, Caco-2", "value": "68.7 ± 18.4", "unit": "µM"},
      {"measurement": "IC50", "setting": "[3]", "value": "58.4 ± 5.67", "unit": "µM"}
    ]},
    {"compound": "COc1ccc2cc([C@H](C)C(=O)O)ccc2c1", "note": "[Compound 2, naproxen, reference compound]", "values": [
      {"measurement": "IC50", "setting": "[1]; Homo sapiens, HL-60", "value": "141 ± 8.51", "unit": "µM"},
      {"measurement": "IC50", "setting": "[3]", "value": "78.6 ± 15.9", "unit": "µM"}
    ]},
    {"compound": "CCCCCCCCCCCCCCCC(=O)O[C@H](COC(=O)C(C)c1ccc(CC(C)C)cc1)COP(=O)([O-])OCC[N+](C)(C)C", "note": "(mixture of isomers) [Compound 9, 1-[2′-(4″-Isobutylphenyl)]propanoyl-2-palmitoyl-sn-glycero-3-phosphocholine]", "values": [
      {"measurement": "IC50", "setting": "[1]", "value": "67.1 ± 10.9", "unit": "µM"},
      {"measurement": "IC50", "setting": "[2]", "value": "125 ± 3.87", "unit": "µM"}
    ]},
    {"compound": "CCCCCCCCCCCCCCCC(=O)O[C@H](COC(=O)C(C)c1ccc2cc(OC)ccc2c1)COP(=O)([O-])OCC[N+](C)(C)C", "note": "(mixture of isomers) [Compound 10, 1-[2′-(6″-Methoxynaphthalenyl)]propanoyl-2-palmitoyl-sn-glycero-3-phosphocholine]", "values": [
      {"measurement": "IC50", "setting": "[1]", "value": "27.1 ± 5.13", "unit": "µM"},
      {"measurement": "concentration up to which non-toxic, Caco-2 cells", "setting": "[2]", "value": "≤ 200", "unit": "µM"}
    ]},
    {"compound": "CC(C)Cc1ccc(C(C)C(=O)O)cc1", "note": "(centres unmarked) [Compound 1, ibuprofen, reference compound]", "values": [
      {"measurement": "IC50", "setting": "[1]; Homo sapiens, HL-60", "value": "106 ± 17.4", "unit": "µM"},
      {"measurement": "concentration up to which non-toxic, HL-60 cells", "setting": "[1]", "value": "≤ 100", "unit": "µM"},
      {"measurement": "IC50", "setting": "[2]; Homo sapiens, Caco-2", "value": "114 ± 10.4", "unit": "µM"},
      {"measurement": "IC50", "setting": "[3]", "value": "155 ± 7.57", "unit": "µM"}
    ]},
    {"compound": "CCCCCCCCCCCCCCCC(=O)OC[C@H](COP(=O)([O-])OCC[N+](C)(C)C)OC(=O)C(C)c1ccc(CC(C)C)cc1", "note": "(mixture of isomers) [Compound 12, 1-Palmitoyl-2-[2′-[4″-isobutylphenyl)]propanoyl-sn-glycero-3-phosphocholine]", "values": [
      {"measurement": "IC50", "setting": "[1]; Homo sapiens, HL-60", "value": "77.4 ± 18.2", "unit": "µM"},
      {"measurement": "IC50", "setting": "[2]; Homo sapiens, Caco-2", "value": "135 ± 18.2", "unit": "µM"},
      {"measurement": "IC50", "setting": "[3]", "value": "79.2 ± 7.86", "unit": "µM"}
    ]},
    {"compound": "CC(C)Cc1ccc(C(C)C(=O)OC[C@H](COP(=O)([O-])OCC[N+](C)(C)C)OC(=O)C(C)c2ccc(CC(C)C)cc2)cc1", "note": "(mixture of isomers) [Compound 15, 1,2-Di-[2′-(4″-isobutylphenyl)]propanoyl-sn-glycero-3-phosphocholine]", "values": [
      {"measurement": "IC50", "setting": "[1]; Homo sapiens, HL-60", "value": "64.5 ± 10.4", "unit": "µM"},
      {"measurement": "IC50", "setting": "[2]; Homo sapiens, Caco-2", "value": "81.3 ± 17.3", "unit": "µM"},
      {"measurement": "IC50", "setting": "[3]", "value": "83.4 ± 1.51", "unit": "µM"}
    ]},
    {"compound": "CCCCCCCCCCCCCCCC(=O)OC[C@H](COP(=O)([O-])OCC[N+](C)(C)C)OC(=O)C(C)c1ccc2cc(OC)ccc2c1", "note": "(stereo partly drawn) [Compound 13, 1-Palmitoyl-2-[2′S-(6″-methoxynaphthalenyl)]propanoyl-sn-glycero-3-phosphocholine]", "values": [
      {"measurement": "solubility in DMSO", "setting": "Solubility in DMSO", "value": "poor solubility"}
    ]},
    {"compound": "COc1ccc2cc([C@H](C)C(=O)OC[C@@H](O)COP(=O)([O-])OCC[N+](C)(C)C)ccc2c1", "note": "[Compound 8, 1-[2′S-(6″-Methoxynaphthalenyl)]propanoyl-2-hydroxy-sn-glycero-3-phosphocholine]", "values": [
      {"measurement": "IC50", "setting": "[2]", "value": "115 ± 26.1", "unit": "µM"}
    ]}
  ]
}
